14 compounds from patent publication US8785424B2, “ngCycloartanone derivatives with anticancer activity” (Pierre Fabre Medicament, priority 2009, dated 2014) can be followed below.

Where a name gives a salt, the structure may show the parent alone.

The subject of this experiment is proteasome. The experiment can be described thus: Cellular proteasome inhibition test: accumulation of 4Ub-Luc reporter (luciferase activity) in DLD-1 4Ub-Luc cell line. Type of experiment: cell-based, human. The note with it: DLD-1 4Ub-Luc cells, 8 hours, epoxomicin = 100%. On the procedure:
Biological tests were carried out according to protocols described in the following articles: Ausseil F. et al. J. Biomol Screen. 2007, 12, 106-116 and Vandenberghe I. et al. Biochemical Pharmacology 2008, 76, 453-462.
In order to select novel proteasome inhibitor compounds, it is necessary to indirectly measure the activity of this proteasome within cells. To this end, we constructed a stable cell line, DLD-1 4Ub-Luc, arising from a human colon cancer cell line, which produces a chimeric reporter protein called 4Ub-Luc. This protein is a fusion between a 4-ubiquitin (4Ub) label and luciferase (Luc). This label is capable to direct every proteins that carry it toward the proteasome. The 4Ub-Luc protein is thus efficiently degraded by the proteasome, in contrast to the “wild” non-fused Luc protein. When the DLD-1 4Ub-Luc cell line is treated with a proteasome inhibitor, the fusion protein is much less efficiently degraded and accumulates in the cell. This accumulation is detected by an increase in luciferase activity in the treated extract compared to the extract from untreated cells. The control consists of verifying that the inhibitor has no effect on accumulation of the wild Luc protein produced by the stable DLD-1 RF cell line. For both cell lines and for each product an induction factor is determined for the product tested (or the reference) corresponding to the ratio between the luciferase activities measured in cells treated with this product (or the reference) and cells treated with solvent alone.
The product's activity is then defined by its relative induction factor, i.e., the ratio of its induction factor (IF % luminescence) to that of the reference molecule epoxomicin (IF=100%; see data presented in the table below).
Thus, the test established by Pierre-Fabre is a cellular test that has the advantage, compared to a purely enzymatic test, of detecting only products capable of penetrating the cell.
Two cell lines are used for this test: DLD-1 RF and DLD-1 4Ub-Luc. The culture medium used is as follows: • MEM • 5% fetal calf serum • 5 ml of penicillin-streptomycin • 2.5 ml of FUNGIZONE® (Amphotericin B) • 10 ml of […]
Day 1: Inoculate white 96-well culture-treated plates (PerkinElmer White ViewPlate, product no. 6005181) with 100 μl of 1·10^5 c/ml cell suspension per well. Incubate for 24 hours so that the cells adhere. On each plate five columns will be inoculated with DLD-1 4Ub-Luc and five others with DLD-1 RF according to diagram 1 below.
Day 2: Remove the medium by turning the plates upside down on cotton, and then carry out the treatment with the compounds of the invention, with solvent alone or with a reference compound such as epoxomicin. […]
The columns are paired (examples 2 and 8, 3 and 9, 4 and 10 and 5 and 11) and treated with the same compound. Columns 6 and 7 receive the experimental control, namely 0.1% DMSO in culture medium for wells B, C, D, and E of columns 6 and 7, and the positive control (10^−7 M epoxomicin) in wells F and G.
After incubation, turn the plate upside down on cotton to empty the wells, rinse with 50 μl of PBS to remove any trace of the cytotoxin tested and then add 50 μl of 5× passive lysis buffer (Promega, product no. E1941) diluted to ⅕ in water. Shake energetically using a plate shaker for 5 to 10 minutes at room temperature before freezing at −20° C.
Luciferase activity is measured using a Luciferase Assay System 10-Pack kit (Promega, product no. E1501).
On the day luciferase activity is to be measured, defrost the plates and wait until they have returned to room temperature. The optimal temperature for luciferase activity is 20-25° C.
Reconstitute the firefly luciferase substrate by defrosting the buffer and then adding 10 ml of buffer to the bottle containing the freeze-dried substrate. Wait until the solution is at room temperature before beginning the assay. […]

Setting [1] is: concentration tested 5 · 10^−6 M.
The mark [2] stands for this setting: concentration tested 5 · 10^−6 M, hydrochloride.
[3] abbreviates: concentration tested 10^−5 M, hydrochloride.
Where [4] appears, read: concentration tested 10^−6 M, hydrochloride.
Setting [5] is: concentration tested 5 · 10^−7 M.

In the case of `C=C(C(=O)[C@H](OC(C)=O)[C@@H](C)[C@H]1[C@@H](OC(C)=O)C[C@@]2(C)[C@@H]3[C@H]4O[C@H]4[C@H]4[C@H](C)C(=O)C=C[C@@]45C[C@@]35CC[C@]12C)[C@@H](C)CO` [Compound 12, 6,7-epoxy-neoboutomellerone], the “relative induction factor (IF % luminescence) versus epoxomicin” value is, setting by setting: under setting [1], 72%; (concentration tested 10^−5 M) 15%; (concentration tested 10^−6 M) 3%.

For the compound `C=C(C(=O)[C@H](O)[C@@H](C)[C@H]1[C@@H](OC(C)=O)C[C@@]2(C)[C@@H]3CC[C@H]4[C@H](C)C(=O)C=C[C@@]45C[C@@]35CC[C@]12C)[C@@H](C)COC(=O)N1CCN(C)CC1` [Compound 24, 26-N—(N-methylpiperazine)carbamate-22-deacetyl-neoboutomellerone hydrochloride], the “relative induction factor (IF % luminescence) versus epoxomicin” value is, setting by setting: under setting [2], 5%; (concentration tested 5 · 10^−7 M, hydrochloride) 12%; under setting [3], 1%; under setting [4], 70%.

Regarding `C=C(C(=O)[C@H](O)[C@@H](C)[C@H]1[C@@H](OC(C)=O)C[C@@]2(C)C3CCC4[C@H](C)C(=O)C=C[C@@]45C[C@@]35CC[C@]12C)[C@@H](C)COC(C)=O` (some centres unmarked) [Compound 17, 26-acetyl-22-deacetyl-neoboutomellerone], the “relative induction factor (IF % luminescence) versus epoxomicin” value under setting [1] is recorded as 29%, the “relative induction factor (IF % luminescence) versus epoxomicin” value under setting [5] is listed as 2%, the “relative induction factor (IF % luminescence) versus epoxomicin” value (concentration tested 10^−5 M) is given as 6% and the “relative induction factor (IF % luminescence) versus epoxomicin” value (concentration tested 10^−6 M) came to 26%.

Consider `C=C(C(=O)[C@H](OC(C)=O)[C@@H](C)[C@H]1[C@@H](OC(C)=O)C[C@@]2(C)C3CCC4[C@H](C)C(=O)C=C[C@@]45C[C@@]35CC[C@]12C)[C@@H](C)COC1(C)OC2OC(COC(C)=O)C(OC(C)=O)C(OC(C)O)C2O1` (some centres unmarked) [Compound 82, Neoboutomellerone 26-(2,3,4,6-tetraacetyl-glucosylate)], for which the “relative induction factor (IF % luminescence) versus epoxomicin” value runs as follows: under setting [1], 59%; (concentration tested 10^−5 M) 48%; (concentration tested 10^−6 M) 2%.

With `CC(=O)O[C@H]1C[C@@]2(C)[C@@H]3CC[C@H]4[C@H](C)C(=O)C=C[C@@]45C[C@@]35CC[C@]2(C)[C@H]1[C@H](C)[C@@H](O)C(=O)C=C(C)C` [Compound 10, 22-deacetyl,26-dehydroxy,24,25-dehydro-nor-neoboutomellerone], the “relative induction factor (IF % luminescence) versus epoxomicin” value reads like this: under setting [1], 5%; (concentration tested 10^−5 M) 53%; (concentration tested 10^−6 M) 1%.

With `C=C(C(=O)[C@H](OC(C)=O)[C@@H](C)[C@H]1[C@@H](OC(C)=O)C[C@@]2(C)[C@@H]3C[C@@H](O)[C@H]4[C@H](C)C(=O)C=C[C@@]45C[C@@]35CC[C@]12C)[C@@H](C)CO` [Compound 6, 6-hydroxy-neoboutomellerone], the “relative induction factor (IF % luminescence) versus epoxomicin” value under setting [1] worked out at 31% and the “relative induction factor (IF % luminescence) versus epoxomicin” value (concentration tested 10^−6 M) is 5%.

In the case of `C=C(C(=O)[C@H](OC(C)=O)[C@@H](C)[C@H]1[C@@H](OC(C)=O)C[C@@]2(C)[C@@H]3CC[C@H]4[C@H](C)C(=O)C=C[C@@]45C[C@@]35CC[C@]12C)[C@@H](C)COC(C)=O` [Compound 18, 26-acetyl-neoboutomellerone], the “relative induction factor (IF % luminescence) versus epoxomicin” value runs as follows: under setting [1], 48%; under setting [5], 1%; (concentration tested 10^−6 M) 12%.

Consider `C=C(C(=O)[C@H](OC(C)=O)[C@@H](C)[C@H]1[C@@H](OC(C)=O)C[C@@]2(C)C3CCC4[C@H](C)C(=O)C=C[C@@]45C[C@@]35CC[C@]12C)[C@@H](C)COC(=O)CCC(=O)O` (some centres unmarked) [Compound 68, 26-succinate-neoboutomellerone], for which the “relative induction factor (IF % luminescence) versus epoxomicin” value is given as 18% under setting [1], 1% under setting [5], 4% (concentration tested 10^−5 M) and 52% (concentration tested 10^−6 M).

For the compound `C=C(C(=O)[C@H](OC(C)=O)[C@@H](C)[C@H]1[C@@H](OC(C)=O)C[C@@]2(C)C3CCC4[C@H](C)C(=O)C=C[C@@]45C[C@@]35CC[C@]12C)[C@@H](C)COP(=O)(OCC)OCC` (some centres unmarked) [Compound 92, 26-(diethylphosphate)-neoboutomellerone], the “relative induction factor (IF % luminescence) versus epoxomicin” value runs as follows: under setting [1], 16%; under setting [5], 3%; (concentration tested 10^−5 M) 2%; (concentration tested 10^−6 M) 43%.

For the compound `C=C(C(=O)[C@H](OC(=O)CNC(=O)OC(C)(C)C)[C@@H](C)[C@H]1[C@@H](OC(C)=O)C[C@@]2(C)C3CCC4[C@H](C)C(=O)C=C[C@@]45C[C@@]35CC[C@]12C)[C@@H](C)COC(C)=O` (some centres unmarked) [Compound 60, 22-deacetyl-neoboutomellerone 22-(N-Boc-glycinate)-26-acetyl], the “relative induction factor (IF % luminescence) versus epoxomicin” value by setting is: under setting [1], 4%; under setting [5], 76%; (concentration tested 10^−5 M) 2%; (concentration tested 10^−6 M) 71%.

For the compound `C=C(C(=O)C(OC(C)=O)C(C)[C@H]1[C@@H](OC(C)=O)C[C@@]2(C)[C@@H]3CC[C@H]4[C@H](C)C(=O)C=C[C@@]45C[C@@]35CC[C@]12C)C(C)CO` (stereo partly drawn) [Compound 13, Diastereoisomer on the Side Chain of Neoboutomellerone], the “relative induction factor (IF % luminescence) versus epoxomicin” value reads like this: under setting [1], 71%; (concentration tested 10^−5 M) 60%; (concentration tested 10^−6 M) 2%.

Turning to `C=C([C@@H](C)COC)C1(O)O[C@H]2C[C@@]3(C)C4CCC5[C@H](C)C(=O)C=C[C@@]56C[C@@]46CC[C@]3(C)[C@H]2[C@H](C)[C@H]1OC(C)=O` (some centres unmarked) [Compound 51, 16-deacetyl-26-methoxy-neoboutomellerone-hemiacetal], the “relative induction factor (IF % luminescence) versus epoxomicin” value is 31% under setting [1], 60% (concentration tested 10^−5 M) and 1% (concentration tested 10^−6 M).

On to `C=C(C(=O)[C@H](O)[C@@H](C)[C@H]1[C@@H](OC(C)=O)C[C@@]2(C)C3CCC4[C@H](C)C(=O)C=C[C@@]45C[C@@]35CC[C@]12C)[C@@H](C)COC(=O)CN(C)C` (some centres unmarked) [Compound 64, 22-deacetyl-neoboutomellerone 26-N-dimethyl glycinate], for which the “relative induction factor (IF % luminescence) versus epoxomicin” value runs as follows: under setting [1], 35%; (concentration tested 10^−5 M) 7%; (concentration tested 10^−6 M) 22%.

Take `C=C(C(=O)[C@H](OC(C)=O)[C@@H](C)[C@H]1[C@@H](OC(C)=O)C[C@@]2(C)C3CCC4[C@H](C)C(=O)C=C[C@@]45C[C@@]35CC[C@]12C)[C@@H](C)COC(=O)CN(C)C` (some centres unmarked) [Compound 63, neoboutomellerone 26-N-dimethyl glycinate hydrochloride]: the “relative induction factor (IF % luminescence) versus epoxomicin” value amounted to 11% under setting [2], 66% under setting [5], 3% under setting [3] and 50% under setting [4].
